Earlier results in patent US20180116967A1, “EXTENDED RELEASE TABLET OF CYCLOBENZAPRINE” (SYNMOSA BIOPHARMA CORPORATION, priority 2015, published 2018).

Test system: plasma protein

CN(C)CCC=C1c2ccccc2C=Cc2ccccc21 [cyclobenzaprine, 3-(5H-dibenzo[a,d]cyclohepten-5-ylidene)-N,N-dimethyl-1-propanamine]
drug coupled to plasma protein: About 93%
